Data set [1] deals with sensory neuronal cultures. The experiment in a line: Neuronal cell viability (trypan blue exclusion). Type of data set: cell-based. The procedure:
Primary cultures of sensory neurons were harvested and maintained as previously described (Vasko et al., 2005). Briefly, adult male Sprague-Dawley rats (150-175 g; Harlan, Indianapolis, Ind.) were euthanized by CO2 asphyxiation and dorsal root ganglia (DRG) dissected from all spinal levels, transferred to into a collagenase solution (1 mg/ml), incubated for 1 hour at 37° C., then dissociated by mechanical agitation. Approximately 30,000 cells or 60,000 cells were plated into each well of 12-well or 6-well culture plates, respectively. All culture dishes were precoated with poly-D-lysine and laminin. Cells were maintained in F-12 media supplemented with 10% horse serum, 2 mM glutamine, 100 μg/ml Normocin™, 50 μg/ml penicillin, 50 μg/ml streptomycin, 50 μM 5-fluoro-2′-deoxyuridine (Invitrogen), 150 μM uridine, and 30 ng/ml of NGF in 3% CO2 at 37° C. Growth medium was changed every other day. Experiments were performed after cells were maintained in culture for 12-14 days.
Sensory neuronal culture trypan blue exclusion analysis was performed as previously described (Vasko et al., 2011). Cells were detached by adding a 0.05% trypsin-EDTA solution and media to each well. An equal volume of 0.4% (w/v) trypan blue in PBS was added to the cell suspension and the numbers of living cells (i.e., those that exclude the dye) were counted under a phase contrast microscope using a hemacytometer. Percent survival was calculated as the percent of live cells divided by the total cell number (including dead and live cells).

The target of data set [2] is T1, Ref-1/APE1 (Rattus norvegicus, UniProt P43138).
T1 construct: When isolated sensory neurons were exposed to APX3330; endogenous in cells; host or cells: isolated sensory neurons
The experiment in a line: Ref-1/APE1 endonuclease activity in isolated sensory neurons. Type of data set: cell-based.

Data set [3] can be described thus: P450 metabolism analysis using human microsomes. Type of data set: in vitro ADME. The note with it: human. The procedure: (§1) PK studies were performed in the IU Simon Cancer Center Clinical Pharmacology Analytical Core (CPAC), as previously described for E3330 (Fishel et al., 2011) and standards for the compounds used. P450 metabolism studies using human microsomes were also performed in CPAC directed by Dr. David Jones.

A short description of another data set: Pharmacokinetics (PK). The following applies: in vivo. The procedure:
as §1

Data set [4] deals with neuronal cultures derived from DRG. The experiment in a line: pH2A.X immunoblotting in DRG neuronal cultures (Example 1). The format is cell-based, rat. How it is done:
(§2) Dorsal root ganglia (DRG) were dissected from all spinal levels of adult male (150-175 g) Sprague-Dawley rats (Envigo, Indianapolis, Ind.) and the cells were dissociated as previously described (Kelley et al., 2014). Briefly, the rats were euthanized by CO2 asphyxiation. DRGs were transferred into collagenase solution (1 mg/ml) and incubated for 1 hour at 37° C. The digested DRGs were then rinsed with growth medium, centrifuged and dissociated by mechanical agitation. Approximately 30,000 cells were plated into each well of 12-well culture plates. All culture dishes were precoated with poly-D-lysine and laminin. Cells were maintained in F-12 media supplemented with 10% horse serum, 2 mM glutamine, 100 μg/ml Normocin, 50 μg/ml penicillin, 50 μg/ml streptomycin, 50 μM 5-fluoro-2′-deoxyuridine, 150 μM uridine, and 30 ng/ml of NGF in 3% CO2 at 37° C. Growth medium was changed every other day.
(§3) Small interfering RNAs to APE1 (APE1siRNA) and scrambled siRNA (SCsiRNA) controls were used to decrease APE1 protein expression in sensory neuronal cell cultures and as controls, respectively, as described previously (Vasko et al., 2005, Jiang et al., 2008a). On day 3 in culture, the growth media was replaced with 0.5 ml of Opti-MEM 1 media containing 100 nM of APE1siRNA (5′-[…]-3′ (SEQ ID NO:1)) or SCsiRNA (5′-[…]-3′(SEQ ID NO:2)); (Vasko et al., 2005)) and 10 μl of the transfecting reagent, Neuroporter. On the next day, 0.5 ml of the growth media without antibiotics was added to each well, and after an additional 24 hours the media containing siRNA was replaced with normal growth media.
(§4) Lentiviral constructs containing (1) the CMV promoter, HA-tagged APE1, IRES, and enhanced green fluorescent protein (EGFP); or (2) CMV, IRES, and EGFP were developed. DNA sequencing confirmed the constructs in the pLenti6-R4R2-V5 plasmid containing WT-, C65-, or 226+177-APE1-IRES-EGFP. For lentiviral infections, DRG cells were cultured 5 days before 150 pfu/cell of the lentivirus was added to the media. Two days later, the virus was removed and the cells grown an additional 5 days in regular media.
Tissues or cells were harvested, lysed in RIPA buffer (Santa Cruz Biotechnology; Santa Cruz, Calif., USA), sonicated, and cleared of cellular debris by centrifuging at 4000 RPM for 2 minutes. Protein was quantified using Lowry assay, and electrophoresed in a 12% SDS-polyacrylamide gel. After electrophoresis, proteins were transferred to a PVDF membrane, and blocked with Tris-buffered saline containing 0.1% Tween-20 (TBST) and 5% nonfat dry milk for 1 hour at room temperature while gently agitating. Mouse monoclonal antihuman Ape1 antibodies (1:1000), mouse monoclonal anti-phospho H2AX antibodies (1:1000), mouse monoclonal anti-vinculin antibody (1:1000), and anti-Hemagglutinin (HA) antibody were added to the blocking solution and incubated for 2 hours at room temperature while gently agitating. Antibody binding was detected following appropriate secondary antibody methods using chemiluminescence. The density of the bands was measured using Quantity One software from Bio-Rad (Hercules, Calif.) and data expressed as density normalized to vinculin.
For orientation: In western blotting, separated proteins are transferred to a membrane and probed.

In data set [5] the target is T2, Ref-1/APE1 (Homo sapiens, UniProt P27695).
T2 construct: endogenous in cells
The experiment in a line: Ref-1/APE1 endonuclease activity in tumor cells. Type of data set: cell-based.

For data set [6], the system named is neuronal cultures derived from DRG. The experiment in a line: CGRP release from DRG neuronal cultures (Example 1). Type of data set: cell-based, rat. How it is done: as §2, §3, §4
After neuronal cultures were treated with the appropriate drugs, the cultures were washed once with HEPES buffer consisting of (in mM) 25 HEPES, 135 NaCl, 3.5 KCl, 2.5 CaCl2, 1 MgCl2, 3.3 D-glucose, and 0.1% bovine serum albumin, pH 7.4 and maintained at 37° C. They were then incubated for successive 10-minute intervals with 0.4 ml of HEPES buffer alone (basal release), with buffer containing 30 nM capsaicin, then with buffer alone (to assess return to basal release). After each incubation, the buffer was removed and the amount of immunoreactive CGRP in each sample was measured using radioimmunoassay as previously described (Chen et al., 1996). After the release experiment, the cells in each well were in 0.4 ml of 0.1 M HCl10 minutes and an aliquot taken to measure total CGRP content in the cultures using radioimmunoassay. Total content (fmol/well) was calculated by adding the total amount released in all incubations to the amount measured in the cells. The release data is calculated as fmol released/well/10 minutes.

Usually half-life stands for the time needed for the level to fall by half in the phase considered. A higher half-life goes with slow decline.

T1 sequence (P43138 whole entry): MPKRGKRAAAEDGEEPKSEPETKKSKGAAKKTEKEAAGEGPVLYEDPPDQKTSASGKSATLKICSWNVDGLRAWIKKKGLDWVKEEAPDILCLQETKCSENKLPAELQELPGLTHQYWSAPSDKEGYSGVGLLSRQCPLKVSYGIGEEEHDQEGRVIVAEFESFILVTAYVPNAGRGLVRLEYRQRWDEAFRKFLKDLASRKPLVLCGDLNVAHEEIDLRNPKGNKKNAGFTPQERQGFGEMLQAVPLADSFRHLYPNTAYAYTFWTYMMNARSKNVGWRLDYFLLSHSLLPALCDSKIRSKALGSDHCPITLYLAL
T2 sequence (P27695 whole entry): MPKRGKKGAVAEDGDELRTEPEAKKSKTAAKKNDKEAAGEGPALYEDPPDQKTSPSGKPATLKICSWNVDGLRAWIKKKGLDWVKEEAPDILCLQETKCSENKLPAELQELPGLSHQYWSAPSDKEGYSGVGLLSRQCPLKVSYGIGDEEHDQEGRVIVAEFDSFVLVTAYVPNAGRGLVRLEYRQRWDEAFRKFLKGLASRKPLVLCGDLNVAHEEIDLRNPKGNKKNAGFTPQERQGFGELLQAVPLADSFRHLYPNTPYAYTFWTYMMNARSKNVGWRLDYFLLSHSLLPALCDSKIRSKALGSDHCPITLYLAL

With `CCCCCCCCC/C(=C\C1=C(C)C(=O)C(OC)=C(OC)C1=O)C(=O)O` [APX3330], the “effect on cisplatin-induced cell death” value in data set [1] (20 μM for 48 hours prior to and throughout the cisplatin treatment (24 hours)) is given as “blocked”. For the same molecule, the “cell death / cell viability, drug alone” value in data set [1] (24 hours, E3330 10, 20 or 40 μM, APX2009 various concentrations) is on record as “no significant cell death”. For the same molecule, the Ref-1/APE1 endonuclease activity result at Ref-1/APE1 [2] is reported as “concentration-dependent increase in Ref-1/APE1 endonuclease activity”; at Ref-1/APE1 [5], “not observed in tumor cells”. The half-life in data set [3] was 0.333 h; in the data set “Pharmacokinetics (PK)” it was 3.6 h. The “effect on LPS induction of pH2A.X” value in data set [4] (E3330 20 μM pretreatment, LPS 3 μg/ml 24 hours, SCsiRNA- and APE1siRNA-treated cultures) was “prevented the induction of pH2A.X”. In addition, the “effect on MCP-1 induction of pH2A.X” value in data set [4] (E3330, SCsiRNA or APE1siRNA cultures, MCP-1 0.3 μg/ml 24 hours) is given as “prevented the induction of pH2A.X by MCP-1”. In addition, the “effect on MCP-1-induced change in CGRP release” value in data set [6] (E3330, MCP-1 0.3 μg/ml) is “prevented the change in CGRP release induced by MCP-1 exposure”. The “stimulated release of CGRP in LPS-treated cultures” value in data set [6] (SCsiRNA-treated cultures, LPS 3 μg/ml 24 hours plus APE1 expression or E3330) is recorded as 9.7±0.8 % of total content.

The record behind these values is patent US11351130B2, “Prevention and reversal of inflammation induced DNA damage” (Indiana University Research and Technology Corporation, priority 2017, dated 2022).
